In PubChem BioAssay AID2060486 (Molecular Pharmacology Branch, DTP, NCI, 2025):

Tested on: IGROV1 complex spheroids (HUVEC, MSC), viability % test/control
Assay: Anticancer human tumor IGROV1 cell line growth inhibition [GQUAD];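 further: spheroids exposed to compounds for 7 days before readout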
Settings: for IC50: curve of first compound; for viability, T/C: stronger effect = lower value
Source text: DNA G-quadruplex Stabilizer Agents in Combinations in Complex Spheroids
A high-throughput screen of multi-cell type tumor spheroids was designed to identify active combinations of DNA G-quadruplex stabilizer agents and targeted small molecules. Complex spheroids include a stromal component modeled by human endothelial cells (HUVEC) and fibroblasts modeled by human mesenchymal stem cells (MSCs). The concentration ranges selected for each drug and investigational agent were based upon clinically achievable concentrations if the clinical Cmax of the agent was known.
Compounds. The drugs and investigational agents: pidnarulex (CX-5461; NSC782164), APTO-253 (NSC789042), BRACO-19 (NSC847499), peposertib (NSC802822), ceralasertib (NSC780249), elimusertib (NSC800525), camonsertib (NSC841442), AZD-1390 (NSC803789), olaparib (NSC753686), talazoparib (NSC767125), ART-558 (NSC835418), sotorasib (NSC818433), MRTX-1133 (NSC836407), SN-38 (NSC673596), topotecan (NSC609699), etoposide (NSC141540), doxorubicin (NSC123127), gemcitabine (NSC613327), 5-fluorouracil (NSC19893), paclitaxel (NSC125973), vemurafenib (NSC761431), panobinostat (NSC761190), R-306465 (JNJ-16241199; NSC773264), adavosertib (NSC754352), TP-3654 (NSC805149), carboplatin (NSC241240), KSQ-4279 (NSC840948), and staurosporine (NSC755774) were obtained from the National Cancer Institute (NCI) Developmental Therapeutics Program Chemical Repository (34). The FDA-approved anticancer drug set is available from the NCI Developmental Therapeutics Program. […] The stock solutions were prepared in dimethyl sulfoxide (DMSO, Sigma-Aldrich, St. Louis, MO, cat. D2650) at 800-fold the tested concentration and stored at -70 degrees C prior to their use. All drugs and investigational agents were tested over a range starting from a high concentration at or near the clinical Cmax and decreasing in half-log increments. If the clinical Cmax for an agent had not been determined, the highest concentration tested was 10 microM.
2.3 Cell Culture. All cells were maintained in an incubator at 37 degrees C and 5% CO2 with 95% humidity. The PDC lines were cultured according to standard operating procedures established by the NCI PDMR. All PDCs were thawed and cultured in Matrigel-coated flasks prepared with a working solution of 1X Ham's F-12 nutrient mix, without supplementation (Invitrogen, cat. 11765054), 100 U/mL penicillin-streptomycin (Invitrogen, cat. 15140122), and 2.5% Matrigel (Corning Inc., cat. 354248) for the first three passages. The 857933-349-R-J2-PDC line was cultured in 6C/Colon 1B media, which includes advanced DMEM/F-12 (Thermo Fisher Scientific, cat. 12634028), 10 mM HEPES (Thermo Fisher Scientific, cat. 15630080), 1X GlutaMAX supplement (Thermo Fisher Scientific, cat. 35050061), 0.1 mg/mL primocin (InvivoGen, cat. ant-pm-2), 10% defined fetal bovine serum, heat inactivated (HyClone Laboratories Inc., cat. SH30070.03HI), 50% L-WRN conditioned media (ATCC, cat. CRL-3276), 1.25 mM N-Acetyl-L-cysteine (Sigma-Aldrich, cat. A9165), 10 mM nicotinamide (Sigma-Aldrich, cat. N0636), 1X B-27 supplement (Thermo Fisher Scientific, cat. 17504044), 1X N-2 supplement (Thermo Fisher Scientific, cat. 17502048), 10 microM Y-27632 dihydrochloride (Tocris Bioscience, cat. 1254), and 50 ng/mL human EGF recombinant protein (Thermo Fisher Scientific, cat. PHG0311). The 485176-168-R4-J1-PDC line was cultured in Panc media, which includes all 6C/Colon 1B media components plus 100 ng/mL human FGF-10 (Thermo Fisher Scientific, cat. 100-26), 500 nM SB-431542 (Selleckchem, cat. S1067), and gastrin (Tocris, cat. 3006).
[…]

[1] = second compound 0.0316 µM, first compound 0.0316 µM
[2] = second compound 0.0316 µM, first compound 0.316 µM
[3] = second compound 0.1 µM, first compound 0.0316 µM
[4] = second compound 0.1 µM, first compound 0.316 µM
[5] = second compound 0.316 µM, first compound 0.0316 µM
[6] = second compound 0.316 µM, first compound 0.316 µM
[7] = second compound 1 µM, first compound 0.0316 µM
[8] = second compound 1 µM, first compound 0.316 µM
[9] = second compound 3.16 µM, first compound 0.0316 µM
[10] = second compound 3.16 µM, first compound 0.316 µM
[11] = second compound 10 µM, first compound 0.0316 µM
[12] = second compound 10 µM, first compound 0.316 µM

With `Cn1ncnc1[C@H]1c2n[nH]c(=O)c3cc(F)cc(c23)N[C@@H]1c1ccc(F)cc1` + Cc1[nH]c2ccc(F)cc2c1-c1nc2c3cccnc3c3ncccc3c2[nH]1 the IC50 (second compound 0.0316 µM) was 149 nM, the IC50 (second compound 0.1 µM) was 73.5 nM and the IC50 (second compound 0.316 µM) was 53 nM. For the same compound, the IC50 (second compound 1 µM) was < 0.999 nM, the IC50 (second compound 3.16 µM) was < 0.999 nM and the IC50 (second compound 10 µM) was < 0.999 nM. The viability, T/C (second compound 0.0316 µM, first compound 0.000999 µM) was 105%, the viability, T/C (second compound 0.0316 µM, first compound 0.00316 µM) was 79.6% and the viability, T/C (second compound 0.0316 µM, first compound 0.00999 µM) was 86.7%. For the same compound, the viability, T/C [1] was 62.3%, the viability, T/C (second compound 0.0316 µM, first compound 0.0999 µM) was 67.7% and the viability, T/C [2] was 33.4%. It also gave a viability, T/C (second compound 0.1 µM, first compound 0.000999 µM) of 100%, a viability, T/C (second compound 0.1 µM, first compound 0.00316 µM) of 80.1% and a viability, T/C (second compound 0.1 µM, first compound 0.00999 µM) of 83%. For the same compound, the viability, T/C [3] was 48.9%, the viability, T/C (second compound 0.1 µM, first compound 0.0999 µM) was 53.1% and the viability, T/C [4] was 32%. For the same compound, the viability, T/C (second compound 0.316 µM, first compound 0.000999 µM) was 96.4%, the viability, T/C (second compound 0.316 µM, first compound 0.00316 µM) was 81.9% and the viability, T/C (second compound 0.316 µM, first compound 0.00999 µM) was 68.9%. It also gave a viability, T/C [5] of 54.8%, a viability, T/C (second compound 0.316 µM, first compound 0.0999 µM) of 46.5% and a viability, T/C [6] of 27.5%. It also gave a viability, T/C (second compound 1 µM, first compound 0.000999 µM) of 5.11%, a viability, T/C (second compound 1 µM, first compound 0.00316 µM) of 4.97% and a viability, T/C (second compound 1 µM, first compound 0.00999 µM) of 5.21%. For the same compound, the viability, T/C [7] was 4.33%, the viability, T/C (second compound 1 µM, first compound 0.0999 µM) was 4.79% and the viability, T/C [8] was 4.17%. The viability, T/C (second compound 3.16 µM, first compound 0.000999 µM) was 4.43%, the viability, T/C (second compound 3.16 µM, first compound 0.00316 µM) was 4.31% and the viability, T/C (second compound 3.16 µM, first compound 0.00999 µM) was 4.37%. The viability, T/C [9] was 4.14%, the viability, T/C (second compound 3.16 µM, first compound 0.0999 µM) was 4.64% and the viability, T/C [10] was 3.96%. It also gave a viability, T/C (second compound 10 µM, first compound 0.000999 µM) of 4.02%, a viability, T/C (second compound 10 µM, first compound 0.00316 µM) of 3.63% and a viability, T/C (second compound 10 µM, first compound 0.00999 µM) of 5.14%. For the same compound, the viability, T/C [11] was 4.68%, the viability, T/C (second compound 10 µM, first compound 0.0999 µM) was 4.53% and the viability, T/C [12] was 4.33%.
`O=C(c1cc(Cc2n[nH]c(=O)c3ccccc23)ccc1F)N1CCN(C(=O)C2CC2)CC1` + Cc1[nH]c2ccc(F)cc2c1-c1nc2c3cccnc3c3ncccc3c2[nH]1 showed an IC50 (second compound 0.0316 µM) of 5340 nM, an IC50 (second compound 0.1 µM) of 3120 nM and an IC50 (second compound 0.316 µM) of 5530 nM. The IC50 (second compound 1 µM) was < 31.6 nM, the IC50 (second compound 3.16 µM) was < 31.6 nM and the IC50 (second compound 10 µM) was < 31.6 nM. For the same compound, the viability, T/C [1] was 97.1%, the viability, T/C (second compound 0.0316 µM, first compound 0.1 µM) was 82.3% and the viability, T/C [2] was 94.9%. For the same compound, the viability, T/C (second compound 0.0316 µM, first compound 1 µM) was 66.5%, the viability, T/C (second compound 0.0316 µM, first compound 3.16 µM) was 72.8% and the viability, T/C (second compound 0.0316 µM, first compound 10 µM) was 31%. The viability, T/C [3] was 89.1%, the viability, T/C (second compound 0.1 µM, first compound 0.1 µM) was 83.2% and the viability, T/C [4] was 69.4%. The viability, T/C (second compound 0.1 µM, first compound 1 µM) was 57.3%, the viability, T/C (second compound 0.1 µM, first compound 3.16 µM) was 62.3% and the viability, T/C (second compound 0.1 µM, first compound 10 µM) was 23.5%. The viability, T/C [5] was 72.9%, the viability, T/C (second compound 0.316 µM, first compound 0.1 µM) was 82.4% and the viability, T/C [6] was 74%. For the same compound, the viability, T/C (second compound 0.316 µM, first compound 1 µM) was 82.3%, the viability, T/C (second compound 0.316 µM, first compound 3.16 µM) was 69.8% and the viability, T/C (second compound 0.316 µM, first compound 10 µM) was 28%. It also gave a viability, T/C [7] of 4.09%, a viability, T/C (second compound 1 µM, first compound 0.1 µM) of 3.9% and a viability, T/C [8] of 4.15%. It also gave a viability, T/C (second compound 1 µM, first compound 1 µM) of 4.33%, a viability, T/C (second compound 1 µM, first compound 3.16 µM) of 6.04% and a viability, T/C (second compound 1 µM, first compound 10 µM) of 4.53%. The viability, T/C [9] was 3.99%, the viability, T/C (second compound 3.16 µM, first compound 0.1 µM) was 3.97% and the viability, T/C [10] was 3.46%. The viability, T/C (second compound 3.16 µM, first compound 1 µM) was 3.87%, the viability, T/C (second compound 3.16 µM, first compound 3.16 µM) was 4.83% and the viability, T/C (second compound 3.16 µM, first compound 10 µM) was 3.88%. It also gave a viability, T/C [11] of 4.17%, a viability, T/C (second compound 10 µM, first compound 0.1 µM) of 3.02% and a viability, T/C [12] of 3.67%. It also gave a viability, T/C (second compound 10 µM, first compound 1 µM) of 4.06%, a viability, T/C (second compound 10 µM, first compound 3.16 µM) of 5.08% and a viability, T/C (second compound 10 µM, first compound 10 µM) of 4.55%.
